Literature values, collected in patent US20200093858A1, “VAGINAL BIOADHESIVE BORIC ACID FORMULATION AND ITS PREPARATION METHOD” (Halo Science LLC, priority 2015, published 2020).
Where two headings read alike, the source gives them in different places.

Columns and labels:
[1] = test system: recurrent bacterial vaginosis; settings: for cure rate / cumulative cure rate: boric acid in addition to nitroimidazole
[2] = 600 mg per day, therapeutic course of two weeks
common fungi or bacteria = settings: in urine
C. albicans = settings: 2×10^6 per mL of C. albicans, in vitro
T. glabrata = settings: refractory T. glabrata vaginitis

OB(O)O [boric acid]
adverse reactions ([1]; in vivo): No adverse reactions were observed
cure rate ([1]; week 7): 88%
cure rate ([1]; week 12): 92%
cumulative cure rate ([1]; week 16): 78%
cumulative cure rate ([1]; week 28): 65%
adverse reactions [2]: did not cause adverse reactions
cure rate (vulvovaginal candidiasis; boric acid treatment of vulvovaginal candidiasis): > 90%
efficacy compared with conazoles (vulvovaginal candidiasis; treatment for 14 days): equivalent to conazoles
boric acid concentration that could suppress almost all common fungi or bacteria (common fungi or bacteria): 10 to 20 mg/mL
boric acid concentration that inhibited proliferation of C. albicans (C. albicans): 4%
Clinical efficacy (T. glabrata): ≤ 81%
mycological eradication rate (T. glabrata): ≤ 77%
